Data taken from patent publication US7473524B2, “Mutational profiles in HIV-1 protease correlated with phenotypic drug resistance” (priority 2002, dated 2009).

Experiments:
Type in all cases: cell-based
[1] = system: HIV-1/LAI-derived strain I031L/I, F116F/L, Y181C, G190E, T386A; assay: Antiviral activity in MT4 cells, low MOI strain selected at 5.000 μM, day 42; conditions: for Fold resistance: Comp. 1 5.000 μM, vs wild type; for EC50: Human immunodeficiency virus 1, MT4, Comp. 1 5.000 μM, read-out: median(EC50 (μM))
Experimental: (§1) Determination of the antiviral activity of a compound was done as described in Pauwels R. et al. (J Virol Methods 1988; 20(4):309-21). Various concentrations of the test compounds were brought into each well of a flat-bottom microtiter plate. Subsequently, HIV and MT4 cells were added to a final concentration of 200-250 50% cell culture infectious doses (CCID50)/well and 30,000 cells/well, respectively. After 5 days of incubation (37° C., 5% CO2), the cytopathic effect of the replicating virus was determined by the tetrazolium colorimetric MTT method. The dose protecting 50% of the cells from virus cytopathic effect was defined as the EC50, while the dose achieving 90% protection was defined as the EC90.
(§2) The reporter gene assay used MT4-LTR-EGFP cells. Upon infection by HIV-1, the expression of the viral tat product increases transcription from the HIV-1 LTR promoter, leading to high-level expression of the reporter gene product. The assay procedure was similar to the CPE assay except for the end reading of the assay, which was performed on day 3 by measuring the relative fluorescence of treated cultures and comparing this with the relative fluorescence of untreated cultures. The EC50 or the EC90 of a compound was defined as the concentration that inhibited the relative fluorescence by 50% or 90% respectively.
(§3) MT4-LTR-EGFP cells were infected at a multiplicity of infection (MOI) of 0.01 to 0.001 CCID50/cell in the presence of inhibitor. The cultures were sub-cultivated and scored microscopically on virus-induced fluorescence and cytopathogenicity every 3-4 days. The cultures were sub-cultivated in the presence of the same compound concentration until signs of virus replication were observed. The escaping virus was further cultivated in the presence of the same inhibitor concentration in order to enrich the population in resistant variants. If full virus breakthrough was observed the supernatant was collected and stored (new virus strain). Afterwards, the same virus was challenged with a higher compound concentration in order to select variants able to grow in the presence of as high as possible inhibitor concentrations. From the new viruses, a virus stock was grown in the absence of inhibitor.
(§4) The in vitro antiviral activity of compound 1 and current reverse transcriptase inhibitors against the selected strains was evaluated in acutely infected MT4 cells. Median EC50 values together with the fold change in resistance (expressed as a ration of EC50) as compared to wild type (FC) are reported.

[2] = system: HIV-1/LAI-derived strain L100L/I, Y181C, T386A; assay: Antiviral activity in acutely infected MT4 cells, strain selected at high MOI with compound 1 0.200 μM; conditions: for EC50: Human immunodeficiency virus 1, MT4, 600 h, day 25, read-out: median(EC50 (μM)); for Fold resistance: day 25, vs wild type
Experimental: as §1, §2
(§5) Cells are infected at a high MOI (such as 1-50 CCID50/cell), corresponding to >10^9 viral RNA copies/ml. These experiments have been designed to mimic the quasi-species variability that is observed in HIV infected individuals where 10^9 to 10^10 new viruses are produced daily with a mutation rate of 10^−4 to 10^−5. The infected MT4-LTR-EGFP cells are treated with inhibitors at 40, 200 nM, 1 μM and higher for a maximum of 30 days. The cultures are subcultivated and scored on virus-induced fluorescence and cytopathicity every 3-4 days. If full virus breakthrough (100% CPE) is observed the supernatants was collected and stored (new virus strain). If no full CPE was observed the cells were subcultivated and further grown in the presence of the same concentration compound till full virus breakthrough, with a maximum of 30 days. From the emerging virus populations a virus stock was grown in the absence of compounds and titrated. The sensitivities of the isolated strains to HIV-1 RT inhibitors were determined and the strains were genotyped.
as §4

[3] = system: HIV-1/LAI-derived strain M164M/I, Y181C, D186D/N, M230M/I, T386A; assay: Antiviral activity in MT4 cells, low MOI strain selected at 0.200 μM, day 28; conditions: Comp. 1 0.200 μM; for Fold resistance: vs wild type; for EC50: Human immunodeficiency virus 1, MT4, 672 h, read-out: median(EC50 (μM))
Experimental: as §1, §2, §3, §4

HIV-1/LAI [4] = assay: In vitro selection of resistant strains, low MOI, MT4-LTR-EGFP cells; conditions: Y181C, T386A
Excerpt: as §3
(§6) In vitro drug selection experiments starting from wild-type HIV-1/LAI under pressure of compound 1, Efavirenz and Nevirapine have been performed.

HIV-1/LAI [5] = assay: In vitro selection of resistant strains, high MOI, MT4-LTR-EGFP cells; conditions: starting strain LAI, 0.200 μM, emerging L100L/I, Y181C, T386A
Experimental: as §5, §6

[6] = system: HIV-1/LAI-derived strain Y181C, T386A; assay: Antiviral activity in MT4 cells, low MOI strain selected at 0.040 μM, day 15; conditions: Comp. 1 0.040 μM; for Fold resistance: vs wild type; for EC50: Human immunodeficiency virus 1, MT4, 360 h, read-out: median(EC50 (μM))
Experimental: as §1, §2, §3, §4

[7] = system: HIV-1/LAI-derived strain I031L/I, Y181C, G190E, T386A; assay: Antiviral activity in MT4 cells, low MOI strain selected at 5.000 μM, day 35; conditions: for Fold resistance: Comp. 1 5.000 μM, vs wild type; for EC50: Human immunodeficiency virus 1, MT4, Comp. 1 5.000 μM, read-out: median(EC50 (μM))
Experimental: as §1, §2, §3, §4

[8] = system: HIV-1/LAI-derived strain I031L, A062A/V, Y181C, G190E, T386A; assay: Antiviral activity in MT4 cells, low MOI strain selected at 15.000 μM, day 42; conditions: for Fold resistance: Comp. 1 15.000 μM, vs wild type; for EC50: Human immunodeficiency virus 1, MT4, Comp. 1 15.000 μM, read-out: median(EC50 (μM))
Experimental: as §1, §2, §3, §4

[9] = system: HIV-1/LAI-derived strain I031L, A062A/V, L074L/V, Y181C, G190E, T386A; assay: Antiviral activity in MT4 cells, low MOI strain selected at 15.000 μM, day 59; conditions: for Fold resistance: Comp. 1 15.000 μM, vs wild type; for EC50: Human immunodeficiency virus 1, MT4, Comp. 1 15.000 μM, read-out: median(EC50 (μM))
Experimental: as §1, §2, §3, §4

HIV-1/LAI [10] = assay: Antiviral activity in acutely infected MT4 cells, wild-type reference strain; conditions: for EC50: Human immunodeficiency virus 1, wild-type HIV-1/LAI, no selection, MT4 cells, read-out: median(EC50 (μM)); for Fold resistance: wild-type HIV-1/LAI (reference), ratio of EC50 to wild type
Experimental: as §1, §2, §4

[11] = system: HIV-1/LAI-derived strain E006E/K, Y181C, M230I, T386A; assay: Antiviral activity in MT4 cells, low MOI strain selected at 0.200 μM, day 22; conditions: Comp. 1 0.200 μM; for Fold resistance: vs wild type; for EC50: Human immunodeficiency virus 1, MT4, 528 h, read-out: median(EC50 (μM))
Experimental: as §1, §2, §3, §4

[12] = system: HIV-1/LAI-derived strain Y181C, G190E, T386A; assay: Antiviral activity in MT4 cells, low MOI strain selected at 1.000 μM, day 35; conditions: for Fold resistance: Comp. 1 1.000 μM, vs wild type; for EC50: Human immunodeficiency virus 1, MT4, Comp. 1 1.000 μM, read-out: median(EC50 (μM))
Experimental: as §1, §2, §3, §4

Row | SMILES | Fold resistance [1] | EC50 [1] | EC50 [2] | Fold resistance [2] | Fold resistance [3] | EC50 [3] | Fold resistance [6] | EC50 [6] | Fold resistance [7] | EC50 [7] | Fold resistance [8] | EC50 [8] | Fold resistance [9] | EC50 [9] | EC50 (HIV-1/LAI [10]) | Fold resistance (HIV-1/LAI [10]) | Fold resistance [11] | EC50 [11] | Fold resistance [12] | EC50 [12] | also measured
1 | Cc1cc(C#N)cc(C)c1Oc1nc(Nc2ccc(C#N)cc2)nc(N)c1Br [Compound 1, Benzonitrile, 4-[[6-amino-5-bromo-2-[(4-cyanophenyl)-amino]-4-pyrimidinyl]oxy]-3,5-dimethyl-] | 90 fold | 0.126 µM | 0.11 µM | 78 fold | 16 fold | 0.0228 µM | 24 fold | 0.0334 µM | 282 fold | 0.394 µM | 441 fold | 0.618 µM | >7,143 fold | > 10 µM | 0.0014 µM | 1 fold | 21 fold | 0.0298 µM | 155 fold | 0.217 µM | Days to breakthrough (HIV-1/LAI [4]; 0.040 μM): day 15; Days to breakthrough (HIV-1/LAI [4]; 0.200 μM, E006E/K, M230I): day 22; Days to breakthrough (HIV-1/LAI [4]; 0.200 μM, M164M/I, D186D/N, M230M/I): day 28; Days to breakthrough (HIV-1/LAI [4]; 1.000 μM, G190E): day 35; Days to breakthrough (HIV-1/LAI [4]; 5.000 μM, I031L/I, F116F/L, G190E): day 42; Days to breakthrough (HIV-1/LAI [4]; 5.000 μM, I031L/I, G190E): day 35; Days to breakthrough (HIV-1/LAI [4]; 15.000 μM, I031L, A062A/V, L074L/V, G190E): day 59; Days to breakthrough (HIV-1/LAI [4]; 15.000 μM, I031L, A062A/V, G190E): day 42; Days to breakthrough (HIV-1/LAI [5]): day 25
2 | Cc1ccnc2c1NC(=O)c1cccnc1N2C1CC1 [Nevirapine] | >131 fold | > 10 µM |  |  | >131 fold | > 10 µM | >131 fold | > 10 µM | >131 fold | > 10 µM | >131 fold | > 10 µM | >131 fold | > 10 µM | 0.0763 µM | 1 fold | >131 fold | > 10 µM | >131 fold | > 10 µM | 
3 | O=C1Nc2ccc(Cl)cc2[C@@](C#CC2CC2)(C(F)(F)F)O1 [Efavirenz] | 44 fold | 0.0442 µM | 0.208 µM | 208 fold | 7 fold | 0.0072 µM | 7 fold | 0.0067 µM |  |  | 209 fold | 0.209 µM | >10,000 fold | > 10 µM | 0.001 µM | 1 fold | 7 fold | 0.0067 µM | 46 fold | 0.0465 µM | 
